Reference: BindingDB's records for doi:10.1021/acs.jmedchem.6b00608 (Chinese Academy of Sciences, 2016)

biological target: T1, Tyrosine-protein kinase receptor UFO (Homo sapiens, UniProt P30530); experiment: Inhibition of human recombinant AXL incubated for 1 to 1.5 hrs by FRET based Z'-Lyte kinase assay
T1 sequence (P30530 whole entry): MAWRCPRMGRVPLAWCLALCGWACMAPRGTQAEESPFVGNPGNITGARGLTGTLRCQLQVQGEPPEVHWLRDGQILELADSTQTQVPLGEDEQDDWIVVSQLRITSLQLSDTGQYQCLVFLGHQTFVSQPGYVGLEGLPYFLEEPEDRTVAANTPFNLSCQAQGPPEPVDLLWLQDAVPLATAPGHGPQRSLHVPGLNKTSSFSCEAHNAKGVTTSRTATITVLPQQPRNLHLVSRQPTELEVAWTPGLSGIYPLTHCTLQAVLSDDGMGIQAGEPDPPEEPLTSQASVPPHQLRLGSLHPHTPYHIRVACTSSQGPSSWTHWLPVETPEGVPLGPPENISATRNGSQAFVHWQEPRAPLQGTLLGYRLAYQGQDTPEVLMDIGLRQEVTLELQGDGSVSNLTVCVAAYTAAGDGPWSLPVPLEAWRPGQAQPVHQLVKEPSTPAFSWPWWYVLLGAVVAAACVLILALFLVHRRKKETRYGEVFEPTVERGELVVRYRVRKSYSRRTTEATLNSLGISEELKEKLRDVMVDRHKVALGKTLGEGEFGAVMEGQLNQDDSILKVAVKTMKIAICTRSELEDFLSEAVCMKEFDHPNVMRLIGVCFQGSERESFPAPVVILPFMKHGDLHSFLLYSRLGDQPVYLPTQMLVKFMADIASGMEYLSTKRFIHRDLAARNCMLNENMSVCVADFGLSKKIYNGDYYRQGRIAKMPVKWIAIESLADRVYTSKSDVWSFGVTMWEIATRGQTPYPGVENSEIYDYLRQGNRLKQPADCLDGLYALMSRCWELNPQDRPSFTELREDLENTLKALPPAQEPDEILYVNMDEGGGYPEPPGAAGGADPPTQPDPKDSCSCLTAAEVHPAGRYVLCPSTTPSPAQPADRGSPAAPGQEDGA

For `Cc1c(C(=O)Nc2ccc(Oc3ncnc4[nH]cc(-c5ccccc5)c34)c(F)c2)c(=O)c2cc(F)ccc2n1C`, which IC50 is on record?
Its IC50 is over 10 µM.

For `Cc1c(C(=O)Nc2ccc(Oc3ncnc4[nH]cc(-c5ccccc5)c34)c(F)c2)c(=O)c2cc3ccccc3cc2n1C`, which IC50 is on record?
The IC50 was over 10 µM.

For `Cc1c(C(=O)Nc2ccc(Oc3ncnc4[nH]cc(-c5ccccc5)c34)c(F)c2)c(=O)c2cc(-c3ccccc3)ccc2n1C`, which IC50 is on record?
The IC50 was over 10 µM.
